{
  "source": "patent US11607422B2",
  "about": "“Uttroside B and derivatives thereof as therapeutics for hepatocellular carcinoma” (Rajiv Gandhi Centre for Biotechnology, an Autonomous …, priority 2016, dated 2023)",
  "key": {"[1]": {"system": "HepG2 cells", "experiment": "MTT cell viability assay in HepG2 cells", "assay_type": "cell-based, human", "conditions": "72 h, MTT assay; read-out: IC50, cytotoxicity towards HepG2 cells", "experimental": "(§1) Stocks of crude extracts and isolated compound of S. nigrum was prepared in DMSO for the in vitro studies and stored at −20° C. The DMSO concentration in all studies, including controls, was ≤0.2%. Cell viability assay was performed after 72 h of drug treatment while whole cell lysate preparation and cell cycle analysis were done after 24 h and 48 h of drug treatment. For studying NF-κB and AP-1, Uttroside B was incubated for 2 h before extraction.\nMTT [3-(4,5-dimethylthiazole-2-yl)-2,5-diphenyltetrazolium bromide] assay is a standard colorimetric assay, suitable for analyzing proliferation, viability, and cytotoxicity. Briefly, the HepG2 cells were seeded in 96-well plates (2000 cells/well). […] Fresh media containing 25 μL of MTT solution (5 mg/mL in PBS) and 75 μL of complete medium was added to the wells and incubated for 2 h. At the end of incubation, lysis buffer (20% sodium dodecyl sulphate in 50% dimethyl formamide)was added to the wells (0.1 mL/well) and incubated for another 1 h at 37° C. At the end of incubation, the optical density was measured at 570 nm using ELISA plate reader (Bio-Rad). The relative cell viability in percentage was calculated as (A570 of treated samples/A570 of untreated samples)×100. The IC50 values were extrapolated from polynomial regression analysis of study data.^17"}, "[2]": {"system": "A549", "experiment": "MTT cell viability assay in A549 cells", "assay_type": "cell-based", "conditions": "72 h", "experimental": "FIG. 2A is a graph comparison of IC50 of Uttroside B in a panel of cancer cells of different origin. The cancer cell lines HeLa, A375, HepG2, MDA-MB-231, HL 60, A549 and HCT116 were treated with Uttroside B as indicated, incubated for 72 h and the cell viability was assessed by MTT assay. FIG. 2B is a graph showing dose dependent effect of Uttroside B in the liver cancer cell lines and in normal immortalized hepatocytes. The liver cancer cell lines HepG2, Hep3B, SKHEP-1, Huh-7 and normal hepatocytes (Chang liver), were treated with Uttroside B incubated for 72 h and the cell viability was assessed by MTT assay. FIG. 2C is a graph comparison of IC50 of Uttroside B with sorafenib. HepG2 cells were treated with Uttroside B as indicated, incubated for 72 h, and the cell viability was assessed by MTT assay. […] The clones developed were counted and plotted as a graph. Colony containing more than four cells was counted as one clone. […]\nMTT [3-(4,5-dimethylthiazole-2-yl)-2,5-diphenyltetrazolium bromide] assay is a standard colorimetric assay, suitable for analyzing proliferation, viability, and cytotoxicity. […] After overnight incubation, cells were treated with different concentrations of organic extracts (25-250 μg/ml) of S. nigrum and the isolated compound Uttroside B (250-1250 nM) for 72 h and cytotoxicity was measured. […]"}, "[3]": {"system": "AP-1 in HepG2 cells", "experiment": "Electrophoretic mobility shift assay of AP-1", "assay_type": "cell-based, human", "conditions": "HepG2, EMSA", "experimental": "as §1\nRadiolabeling of oligonucleotide probes for electrophoretic mobility shift assay:HepG2 Cells were treated with Uttroside B for two hours, scraped and suspended in 150 μL of lysis buffer (10 mM HEPES(pH 7.9), 10 mM KCl, 0.1 mM EDTA, 0.1 mM EGTA, 1 mM DTT, 0.5 mMphenylmethylsulfonyl fluoride, 2 μg/mL leupeptin, 2 μg/mL aprotinin, 0.5 mg/ml benzamidine) for 30 min, after which 4.5 μl of 10% Nonidet P-40 was added. […]"}, "[4]": {"system": "Swiss albino mice", "experiment": "Acute toxicity study", "assay_type": "in vivo", "experimental": "Toxicological evaluation:a. Animals: Six to eight-week-old female Swiss albino mice (18-22 g) were obtained from the Animal Research Facility of Rajiv Gandhi Centre for\nBiotechnology and the study was performed under protocols approved by Institutional Animal Ethical Committee of Rajiv Gandhi Centre for Biotechnology (IAEC No: 151 (a)/RUBY/2012) b. Acute toxicity study: Swiss albino mice were randomly divided into 3 groups of 6 animals each and were allowed to acclimatize for a week. Group I was taken as the control, which received only vehicle, while Group II and III received a single dose of Uttroside B dissolved in PBS (10 mg/kg and 50 mg/Kg body weight respectively). The mice were observed continuously for 1 h, for any gross behavioral changes and death, and then intermittently for the next 6 h and 24 h. The animals were observed frequently for the next 7 days from the day of treatment after which, the animals were euthanized in a CO2 chamber. The blood serum was collected for analyzing biochemical parameters of liver function, the abnormal values of which are indicative of toxicity. The liver was fixed in 10% buffered formalin and the thin cryostat sections (LEICA CM 1850UV Cryostat) were stained with haematoxylin and eosin for histopathological evaluation.^17"}, "[5]": {"system": "PC-12", "conditions": "literature ref 13; read-out: IC50, cytotoxicity against PC-12; cited from earlier work"}, "[6]": {"conditions": "10 mg/kg and 50 mg/kg single dose"}},
  "data": [
    {"smiles": "C[C@H](CC[C@@]1(O)O[C@H]2C[C@H]3[C@@H]4CC[C@H]5C[C@@H](O[C@@H]6O[C@H](CO)[C@H](O[C@@H]7O[C@H](CO)[C@@H](O)[C@H](O[C@@H]8OC[C@@H](O)[C@H](O)[C@H]8O)[C@H]7O[C@@H]7O[C@H](CO)[C@@H](O)[C@H](O)[C@H]7O)[C@H](O)[C@H]6O)CC[C@]5(C)[C@H]4CC[C@]3(C)[C@H]2[C@@H]1C)CO[C@@H]1O[C@H](CO)[C@@H](O)[C@H](O)[C@H]1O", "note": "[Uttroside B]", "values": [
      {"measurement": "IC50", "setting": "[1]", "result": 500, "unit": "nM"},
      {"measurement": "IC50", "setting": "[2]", "result": 1000, "unit": "nM"},
      {"measurement": "AP-1 (downstream target of MAPK signaling)", "setting": "[3]", "result": "down-regulated"},
      {"measurement": "histopathological analysis of liver tissue, acute", "setting": "[4]; 10 mg/kg and 50 mg/kg", "result": "did not manifest any morphological change characteristic of toxicity"},
      {"measurement": "behavior", "setting": "[4]; [6]", "result": "did not exhibit any abnormal behavior"},
      {"measurement": "serum levels of AST, ALT and ALP", "setting": "[4]; [6]", "result": "did not show any deviation in the serum levels"},
      {"measurement": "liver tissue changes at five times the treatment dose", "setting": "[4]; 50 mg/kg, acute, reversible changes", "result": "micro vesicular fatty changes"},
      {"measurement": "gross adverse response (body weight, fur, behavior, food intake)", "setting": "[4]; up to 5 times dose", "result": "failed to exhibit any signs of cumulative adverse response"},
      {"measurement": "IC50", "setting": "[5]", "result": 1200, "unit": "nM"}
    ]}
  ]
}
